In one assay the target is T1, Interleukin-1α (Mus musculus, UniProt P13504).
T1 construct: 3T3 cells; endogenous in cells; host or cells: Swiss 3T3 cells
Description: Interleukin-1α radioligand binding. To be noted: 10.0 μM; specific binding of [125I]IL-1 alpha; negative = stimulation. On the procedure:
The peptide was further screened in vitro in a variety of enzyme and biochemical assays. Methods employed were adapted from the scientific literature to maximize reliability and reproducibility. The primary literature reference for each assay is listed in Table 11 opposite the results for each assay.
Results presented in Table 10, “Results,” are the average of duplicate determinations, unless otherwise noted.
Reference compounds were tested concurrently at 5 concentrations as an integral part of each assay to ensure the validity of the results obtained. […]
Maximum total binding and nonspecific binding were determined each time each assay was run. […]
Where inhibition constants (Ki) are presented, the Ki values were calculated using the equation of Cheng and Prusoff (Cheng, Y., Prusoff, W. H., Biochem. Pharmacol. […], 1973) using the observed IC50 of the tested compound, the concentration of radioligand employed in the assay, and the historical values for the Kd of the ligand (obtained experimentally). Where presented, the Hill Coefficient (nH), defining the scope of the competitive binding curve, was calculated using GraphPad Prism. […] Where IC50, Ki, and/or Hill Slope data is presented without Standard Error of the Mean (SEM), data are insufficient to be quantitative, and the values presented (Ki, IC50, nH) should be interpreted with caution. […]

The test system of the next assay is Sarcoma 180 tumor. Description: Anti-Cancer Activity Against Mouse Tumor Sarcoma 180. Type of assay: in vivo. To be noted: 10 mg/kg, listed as natural peptide. The protocol: This model has been used extensively as indicative of neovascularization in mammals inasmuch as the tumor so implanted is quickly vascularizing.
Experimental Design: All mice were weighed at test initiation and test termination. The animals were divided into three groups. The Sarcoma 180 tumor was made up from a passage mouse to furnish […] per 0.1 mL inoculum. The cells were injected into the left leg hamstring muscle mass. The was delivered to the mice by I.P. injections, or gavage on days 1-5.
At the termination of the experiments, the mice were weighed and the left rear leg was amputated at the thigh. The skin was removed from the leg to expose the site at which the tumor was located. […].

The subject of assay [1] is oxazolone-induced ear swelling. Description: Immune Suppression, Cellular (oxazolone ear thickness). Type of assay: in vivo, mouse. The following applies: IP, Peptide 100 mg/kg × 5, Cyclophosphamide 30 mg/kg × 5. The protocol:
For in vivo assay, distilled water and saline was used as vehicle in oral and intraperitoneal administration, respectively. Dosing volume was 20 ml/kg for mice or 10 ml/kg for rats.
Groups of 5 ICR derived male mice weighing 22±1 gms were used. The preshaved abdominal surface was sensitized by application of oxazolone 0.1 ml of 5% solution. […] After additional four days, the animals were challenged by secondary application of oxazolone (0.025 ml of 5% solution) to the right ear. After a further 24 hours, each mouse was sacrificed and ear thickness measured with a Dyer Model micrometer gauge. A 30 percent or more (≧30%) decrease relative to the vehicle control group was considered significant and indicated possible immunosuppressant activity.

“And” between values parts separate entries of the source, which are not always exact repeats. Identical values can stand only once.

T1 sequence (P13504 20-576): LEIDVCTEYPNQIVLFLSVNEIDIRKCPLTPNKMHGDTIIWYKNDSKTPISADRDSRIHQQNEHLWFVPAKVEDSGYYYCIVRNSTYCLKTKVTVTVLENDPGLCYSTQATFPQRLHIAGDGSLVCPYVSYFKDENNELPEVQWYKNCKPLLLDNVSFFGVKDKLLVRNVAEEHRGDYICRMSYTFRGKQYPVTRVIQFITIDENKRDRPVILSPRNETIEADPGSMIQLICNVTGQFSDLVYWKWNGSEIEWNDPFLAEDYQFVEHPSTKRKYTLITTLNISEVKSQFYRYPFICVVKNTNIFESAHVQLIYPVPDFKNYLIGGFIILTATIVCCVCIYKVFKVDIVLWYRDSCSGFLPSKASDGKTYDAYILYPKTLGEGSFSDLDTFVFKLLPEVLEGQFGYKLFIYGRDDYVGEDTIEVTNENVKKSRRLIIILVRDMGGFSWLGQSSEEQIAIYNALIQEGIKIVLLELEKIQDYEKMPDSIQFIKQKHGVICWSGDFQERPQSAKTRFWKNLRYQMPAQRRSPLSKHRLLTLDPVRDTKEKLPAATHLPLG

As usually defined, the % Inhibition is the drop in the measured response relative to a control, in per cent. Read a low % Inhibition as a weak effect. As to LEU-PRO-PRO-SER-ARG [Peptide], the “% Inhibition” value at Interleukin-1α is listed as 15%. The “% tumor inhibition” value with Sarcoma 180 tumor (I.P. injections or gavage on days 1-5, 6 mice) was 99.0%. The “Mean tumor wt. gain, gm” value in the assay on Sarcoma 180 tumor (net tumor weight, I.P. injections or gavage on days 1-5, 6 mice) was found to be 0.03 gm. The “% INH.” value in assay [1] (decrease of net ear thickness relative to vehicle control) is 17%. The “Thickness Net, X (group mean)” value in assay [1] (group mean) is 23.0 × 0.1 mm. For the same substance, the “Thickness Net” value in assay [1] (individual mouse, R. Ear minus L. Ear) was 20 × 0.1 mm and 21 × 0.1 mm and 24 × 0.1 mm and 27 × 0.1 mm. In assay [1] (individual mouse, challenged right ear, 24 hours after oxazolone challenge), the “Thickness R. Ear” value was 43 × 0.1 mm (2×) and 44 × 0.1 mm and 50 × 0.1 mm. Besides, the “Thickness L. Ear” value in assay [1] (individual mouse, left ear) was 23 × 0.1 mm (2×) and 22 × 0.1 mm and 20 × 0.1 mm.
